Assay results: patent publication US9931347B2, “Pharmaceutical compound” (IOmet Pharma Ltd., priority 2013, dated 2018)

target: T1, TDO (A172 human glioblastoma cells) (Homo sapiens, UniProt P48775); test: A172 Kynurenine cell based assay; conditions: 500 μM L-tryptophan, 48 hours, kynurenine by Erhlich's reagent
T1 construct: This assay utilised cancer cells which expressed either TDO or IDO; endogenous in cells; host or cells: A172 human glioblastoma cells
Experimental: (§1) Exemplary compounds of the invention were prepared, and tested to determine their effect as TDO and/or IDO inhibitors. Two different assays were employed: 1. a cell-based assay for detecting the effect of test compounds on kynurenine production in two different cancer cell types. This assay utilised cancer cells which expressed either TDO or IDO and as such was used as a means of testing compound activity at these two enzymes in a cell-based context. 2. a TDO and IDO biochemical coupled assay which utilised recombinantly produced and purified TDO and IDO enzymes in combination with the enzyme formamidase. This coupled enzyme system allowed conversion of N-formylkynurenine produced by TDO or IDO activity to kynurenine which was then quantified by fluorescence following addition of Erhlich's Reagent The protocols for these are set out below.
(§2) A172 (human glioblastoma) and SKOV3 (human ovarian adenocarcinoma) cells were seeded in a 96 well plate at 30,000 or 40,000 cells per well respectively in phenol red-free RPMI supplemented with 10% FCS, 2 mM L-glutamine and 500 μM L-tryptophan. IDO expression was induced in the SKOV3 cells by the addition of 500 ng/ml IFN-γ. Cells were incubated at 37° C. with or without the addition of test compound. After 48 hours, the cells were removed by centrifugation and Erhlich's reagent was added to the supernatant. The Erhlich's reagent was incubated for 5 minutes before the absorbance was read at 490 nm.

T1 sequence (P48775 whole entry): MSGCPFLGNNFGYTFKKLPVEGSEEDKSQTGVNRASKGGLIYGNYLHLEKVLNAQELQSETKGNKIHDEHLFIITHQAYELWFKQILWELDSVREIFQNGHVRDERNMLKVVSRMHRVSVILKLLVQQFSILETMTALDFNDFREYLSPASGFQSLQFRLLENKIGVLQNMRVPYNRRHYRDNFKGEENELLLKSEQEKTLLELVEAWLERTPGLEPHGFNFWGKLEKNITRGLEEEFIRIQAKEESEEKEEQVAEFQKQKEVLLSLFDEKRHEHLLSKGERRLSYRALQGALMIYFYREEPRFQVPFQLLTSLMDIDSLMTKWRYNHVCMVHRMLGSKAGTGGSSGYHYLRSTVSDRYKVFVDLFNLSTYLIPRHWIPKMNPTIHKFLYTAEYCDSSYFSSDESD

A172 Kynurenine cell based assay pIC50	SMILES
+ (+ = pIC50 4.00-4.99)	CS(=O)(=O)N1CCC(c2c[nH]c3ccc(C#N)cc23)CC1 [Compound 177]
+ (+ = pIC50 4.00-4.99)	CS(=O)(=O)N1CCC(c2c[nH]c3ccccc23)C(O)C1 (centres unmarked) [Compound 187]
++ (++ = pIC50 5.00-5.99)	O=C1CN(c2c[nH]c3ccccc23)CCN1 [Compound 188]
++ (++ = pIC50 5.00-5.99)	O=C1CCC2CN(c3c[nH]c4ccccc34)CCN12 (centres unmarked) [Compound 190]
++ (++ = pIC50 5.00-5.99)	CC1(C)CN(c2c[nH]c3ccccc23)CCN1S(C)(=O)=O [Compound 191]
+ (+ = pIC50 4.00-4.99)	CN1CC2CN(c3c[nH]c4ccccc34)CCN2C1=O (centres unmarked) [Compound 192]
++ (++ = pIC50 5.00-5.99)	Fc1ccc2c(C3CCN(c4ccccn4)CC3)c[nH]c2c1 [Compound 193]
+ (+ = pIC50 4.00-4.99)	CS(=O)(=O)N1CCC(c2c[nH]c3c(F)cccc23)CC1 [Compound 194]
+ (+ = pIC50 4.00-4.99)	CC(=O)N1CC=C(c2c[nH]c3c(Cl)cccc23)CC1 [Compound 196]
++ (++ = pIC50 5.00-5.99)	CC(=O)N1CCC(c2c[nH]c3cc(F)ccc23)CC1 [Compound 200]
++ (++ = pIC50 5.00-5.99)	CC(=O)N1CC=C(c2c[nH]c3cc(F)cc(F)c23)CC1 [Compound 201]
+ (+ = pIC50 4.00-4.99)	CC(=O)N1CCC(c2c[nH]c3cc(F)cc(F)c23)CC1 [Compound 202]
++ (++ = pIC50 5.00-5.99)	Cc1ccc2c(C3=CCN(S(C)(=O)=O)CC3)c[nH]c2c1 [Compound 206]
+ (+ = pIC50 4.00-4.99)	COCCNC(=O)N1CCC(c2c[nH]c3ccccc23)CC1 [Compound 212]
+ (+ = pIC50 4.00-4.99)	CS(=O)(=O)N1CCC(c2c[nH]c3cc(F)cc(F)c23)CC1 [Compound 216]
+ (+ = pIC50 4.00-4.99)	COCCNS(=O)(=O)N1CCC(c2c[nH]c3ccccc23)CC1 [Compound 219]
+ (+ = pIC50 4.00-4.99)	O=S(=O)(N1CCOCC1)N1CCC(c2c[nH]c3ccccc23)CC1 [Compound 220]
+ (+ = pIC50 4.00-4.99)	CS(=O)(=O)N1CC=C(c2c[nH]c3cc(C(F)(F)F)ccc23)CC1 [Compound 224]
+ (+ = pIC50 4.00-4.99)	O=C(NCCO)N1CCC(c2c[nH]c3ccccc23)CC1 [Compound 226]
++ (++ = pIC50 5.00-5.99)	CS(=O)(=O)N1CC=C(c2c[nH]c3ccc(C#N)cc23)CC1 [Compound 230]
+ (+ = pIC50 4.00-4.99)	CC(=O)N1CCC(c2c[nH]c3cc(C#N)ccc23)CC1 [Compound 237]
+ (+ = pIC50 4.00-4.99)	CN(C)CCNC(=O)N1CCC(c2c[nH]c3ccccc23)CC1 [Compound 246]
+ (+ = pIC50 4.00-4.99)	CCNS(=O)(=O)N1CCC(c2c[nH]c3ccccc23)CC1 [Compound 258]

A172 Kynurenine cell based assay pIC50	SMILES
+ (+ = pIC50 4.00-4.99)	O=C(c1cnccn1)N1CCC(c2c[nH]c3cc(F)ccc23)CC1 [Compound 261]
+ (+ = pIC50 4.00-4.99)	O=C(C1CCOC1)N1CCC(c2c[nH]c3cc(F)ccc23)CC1 (centres unmarked) [Compound 262]
++ (++ = pIC50 5.00-5.99)	COCC(=O)N1CCC(c2c[nH]c3cc(F)ccc23)CC1 [Compound 264]
+ (+ = pIC50 4.00-4.99)	CC(C)C(=O)N1CCC(c2c[nH]c3cc(F)ccc23)CC1 [Compound 266]
+ (+ = pIC50 4.00-4.99)	CC(C)C(=O)N1CCC(C(=O)N2CCC(c3c[nH]c4cc(F)ccc34)CC2)CC1 [Compound 267]
+ (+ = pIC50 4.00-4.99)	CCN1CC(C(=O)N2CCC(c3c[nH]c4cc(F)ccc34)CC2)CC1=O (centres unmarked) [Compound 268]
+ (+ = pIC50 4.00-4.99)	O=C(c1ccno1)N1CCC(c2c[nH]c3cc(F)ccc23)CC1 [Compound 271]
+ (+ = pIC50 4.00-4.99)	Cn1cnc(C(=O)N2CCC(c3c[nH]c4cc(F)ccc34)CC2)c1 [Compound 272]
+ (+ = pIC50 4.00-4.99)	O=C(c1cocn1)N1CCC(c2c[nH]c3cc(F)ccc23)CC1 [Compound 274]
+ (+ = pIC50 4.00-4.99)	CC(C)CN1CC(C(=O)N2CCC(c3c[nH]c4cc(F)ccc34)CC2)CC1=O (centres unmarked) [Compound 275]
++ (++ = pIC50 5.00-5.99)	O=S(=O)(CC(F)(F)F)N1CCC(c2c[nH]c3cc(F)ccc23)CC1 [Compound 287]
+ (+ = pIC50 4.00-4.99)	Fc1ccc2c(C3CCN(c4nnn[nH]4)CC3)c[nH]c2c1 [Compound 290]
++ (++ = pIC50 5.00-5.99)	CN(C)S(=O)(=O)N1CCN(c2c[nH]c3ccccc23)CC1 [Compound 297]
++ (++ = pIC50 5.00-5.99)	CC(=O)N1CCN(c2c[nH]c3ccccc23)CC1C (centres unmarked) [Compound 298]
++ (++ = pIC50 5.00-5.99)	O=S(=O)(c1ccccc1)N1CCC(c2c[nH]c3cc(F)ccc23)CC1 [Compound 300]
++ (++ = pIC50 5.00-5.99)	Fc1ccc2c(C3CCN(c4ccccc4)CC3)c[nH]c2c1 [Compound 303]
++ (++ = pIC50 5.00-5.99)	O=C1NCC2CN(c3c[nH]c4ccccc34)CCN12 (centres unmarked) [Compound 307]
++ (++ = pIC50 5.00-5.99)	Fc1ccc2c(C3CCN(c4cccnc4)CC3)c[nH]c2c1 [Compound 309]
+ (+ = pIC50 4.00-4.99)	CC(=O)N1CCN(c2c[nH]c3ccccc23)CC1C#N (centres unmarked) [Compound 313]
++ (++ = pIC50 5.00-5.99)	CS(=O)(=O)N1CCN(c2c[nH]c3ccccc23)CC1C#N (centres unmarked) [Compound 314]
+ (+ = pIC50 4.00-4.99)	c1ccc2c(N3CCn4ncnc4C3)c[nH]c2c1 [Compound 315]
++ (++ = pIC50 5.00-5.99)	CS(=O)(=O)N1CCN(c2c[nH]c3ccccc23)CC1CN (centres unmarked) [Compound 318]

target: T2, IDO (SKOV3 human ovarian adenocarcinoma cells, IFN-γ induced) (Homo sapiens, UniProt P14902); test: SKOV3 Kynurenine cell based assay; conditions: IDO induced by 500 ng/ml IFN-γ, 500 μM L-tryptophan, 48 hours
T2 construct: IDO expression was induced in the SKOV3 cells by the addition of 500 ng/ml IFN-γ; endogenous in cells; host or cells: SKOV3 human ovarian adenocarcinoma cells, induced with IFN-γ
T2 sequence (P14902 whole entry): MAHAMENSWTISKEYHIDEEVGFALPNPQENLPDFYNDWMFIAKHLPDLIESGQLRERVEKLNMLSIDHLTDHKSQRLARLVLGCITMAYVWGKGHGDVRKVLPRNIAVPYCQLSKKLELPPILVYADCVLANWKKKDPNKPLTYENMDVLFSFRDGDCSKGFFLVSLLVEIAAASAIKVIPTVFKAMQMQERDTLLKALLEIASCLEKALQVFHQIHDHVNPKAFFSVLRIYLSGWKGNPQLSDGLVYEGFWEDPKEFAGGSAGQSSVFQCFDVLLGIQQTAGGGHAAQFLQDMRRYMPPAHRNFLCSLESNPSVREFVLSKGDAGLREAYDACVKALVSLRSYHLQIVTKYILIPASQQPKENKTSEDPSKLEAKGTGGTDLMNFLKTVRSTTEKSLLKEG
Experimental: as §1
as §2, with “supernatant.” for “supernatant. The Erhlich's reagent was incubated for 5 minutes before the absorbance was read at 490 nm.”

SKOV3 Kynurenine cell based assay pIC50	SMILES
+ (+ = pIC50 4.00-4.99)	CS(=O)(=O)N1CCC(c2c[nH]c3ccc(C#N)cc23)CC1 [Compound 177]
+− (+− = pIC50 <4.00)	CS(=O)(=O)N1CCC(c2c[nH]c3ccccc23)C(O)C1 (centres unmarked) [Compound 187]
+− (+− = pIC50 <4.00)	O=C1CN(c2c[nH]c3ccccc23)CCN1 [Compound 188]
+− (+− = pIC50 <4.00)	O=C1CCC2CN(c3c[nH]c4ccccc34)CCN12 (centres unmarked) [Compound 190]
+− (+− = pIC50 <4.00)	CC1(C)CN(c2c[nH]c3ccccc23)CCN1S(C)(=O)=O [Compound 191]
+− (+− = pIC50 <4.00)	CN1CC2CN(c3c[nH]c4ccccc34)CCN2C1=O (centres unmarked) [Compound 192]
++ (++ = pIC50 5.00-5.99)	Fc1ccc2c(C3CCN(c4ccccn4)CC3)c[nH]c2c1 [Compound 193]
+ (+ = pIC50 4.00-4.99)	CC(=O)N1CCC(c2c(C)[nH]c3ccccc23)CC1 [Compound 195]
+ (+ = pIC50 4.00-4.99)	CC(=O)N1CC=C(c2c[nH]c3c(Cl)cccc23)CC1 [Compound 196]
+ (+ = pIC50 4.00-4.99)	CCN(CC)C(=O)N1CCC(c2c[nH]c3ccccc23)CC1 [Compound 211]
+ (+ = pIC50 4.00-4.99)	CC(=O)N1CC=C(c2c[nH]c3cc(C#N)ccc23)CC1 [Compound 214]
+ (+ = pIC50 4.00-4.99)	CS(=O)(=O)N1CCC(c2c[nH]c3cc(OCc4ccccc4)ccc23)CC1 [Compound 222]
+ (+ = pIC50 4.00-4.99)	CS(=O)(=O)N1CCC(c2c[nH]c3c(Cl)cccc23)CC1 [Compound 235]
+ (+ = pIC50 4.00-4.99)	CC(=O)N1CCC(c2c[nH]c3cc(Cl)c(F)cc23)CC1 [Compound 242]
++ (++ = pIC50 5.00-5.99)	CS(=O)(=O)N1CCC(C2C(=O)Nc3ccc(Cl)cc32)CC1 (centres unmarked) [Compound 294]
+ (+ = pIC50 4.00-4.99)	CS(=O)(=O)N1CCCN(c2c[nH]c3ccccc23)CC1 [Compound 302]
+ (+ = pIC50 4.00-4.99)	CS(=O)(=O)N1CCC(=C2C(=O)Nc3ccc(Br)cc32)CC1 [Compound 305]
++ (++ = pIC50 5.00-5.99)	CS(=O)(=O)N1CCC(C2C(=O)Nc3ccc(Br)cc32)CC1 (centres unmarked) [Compound 306]
+ (+ = pIC50 4.00-4.99)	CS(=O)(=O)N1CCC(C2C(=O)Nc3ccc(C(F)(F)F)cc32)CC1 (centres unmarked) [Compound 310]
+ (+ = pIC50 4.00-4.99)	CS(=O)(=O)N1CCC(C2C(=O)Nc3ccc(C#N)cc32)CC1 (centres unmarked) [Compound 312]
